Results on one compound are retold here after US20070074300A1, “Sialidase inhibitors for the treatment of cardiovascular disease” (priority 2005, published 2007).

Test [1] relates to ApoE KO mice. The test is described as follows: Atherosclerosis (aortic sinus lesion area and volume) in apoE KO mice treated with sialidase inhibitor. To be noted: male apoE KO mice aged 7 months, mini-osmotic pump 1.5 micro-g/day for 6 weeks, vs saline. In kind it is in vivo, mouse. The procedure: FIG. 9 illustrate a morphometric evaluation of atherosclerotic lesion area (A) and volume (B) in the aortic sinus of male ApoE−/− mice treated for 6 weeks with the sialic acid inhibitor ADDN (N-Acetyl-2,3-dehydro-2-deoxyneuraminic acid). Mice aged 7 months were treated for 6 weeks with either saline or the sialic acid inhibitor ADDN. (n=8 in each case). A third group of mice was euthanized at the beginning of the experiment so that the level of atherosclerosis at the time that treatment was initiated could be measured (Base, n=9). Atherosclerotic lesion cross sectional areas in the aortic root (A) and lesion volumes (B) were measured. Values are the averages ±standard error of the mean. Lesion progression was reduced in ADDN-treated mice compared to saline controls. […]
For diet-induced atherosclerosis, mice were fed (beginning four weeks after transplantation) with a high fat, Western-type diet (Covey et al 2003) obtained from Dyets, Inc. (Bethlehem Pa.). […] Atherosclerotic plaque cross sectional area was measured by morphometry using Axiovision software (Carl Zeiss Canada, Inc). A total of eight sections lying at 0.1 mm intervals along the aortic sinus were analyzed for each mouse. […] The volume of atherosclerotic plaque was therefore calculated as the sum of the volumes determined for each 0.1 mm portion of the aortic sinus. […]

The subject of test [2] is differentiated human THP-1 macrophages. In words: IL-6 production by differentiated THP-1 macrophages in culture (ELISA). As to conditions: differentiated THP-1 macrophages incubated 3 days with varying concentrations; IL-6 in culture supernatant by ELISA; FIG. 7. In kind it is cell-based. The protocol: The effects of a sialidase inhibitor, N-acetyl-2,3-dehydro-2-deoxyneuraminic acid (ADDN), on the production of the inflammatory cytokine interleukin-6 (IL-6) by differentiated human THP-1 macrophages in culture was measured.
FIG. 7 illustrates that the inhibition of sialidase activity suppresses production of the pro-atherogenic cytokine IL-6 in differentiated THP-1 macrophages. Differentiated THP-1 macrophages were incubated for 3 days with the varying concentrations of the sialidase inhibitor ADDN. Levels of the cytokine IL-6 in samples of the cell culture supernatant were quantified by ELISA. Data are presented as the mean±standard deviation of triplicate experimental groups. (* denotes significant difference, P<0.001).
In general terms: In an ELISA, binding on a coated surface is turned into a signal by an enzyme label.

Test [3] relates to ApoE KO mice. In words: Serum glucose and serum/lipoprotein cholesterol in apoE KO mice treated with sialidase inhibitor. In kind it is in vivo, mouse. To be noted: vs saline control, FIG. 8. The procedure:
Control mice received daily injections of saline. Data reveal significant reductions in serum glucose levels, and total and LDL cholesterol. P<0.01.
Plasma was prepared from heparinized blood collected by cardiac puncture (Covey et al 2003). Serum was collected from blood using serum separators (Becton Dickenson). Serum was submitted to the Clinical Diagnostic Laboratory at the McMaster University Medical Centre for analyses of standard metabolic parameters including total cholesterol, LDL cholesterol and glucose. Lipoproteins from plasma were separated by size by fast protein liquid chromatography (FPLC) using an AKTA system (Amersham Biosciences, Inc.) with a Superose 6 HR 10/30 column, as described previously (Covey et al 2003). The total cholesterol content in each fraction was assayed using an enzymatic assay kit from Thermo DMA. Lipoproteins (VLDL, LDL and HDL) from human plasma were run as controls to calibrate the column.
The inhibitor, N-Acetyl-2,3-dehydro-2-deoxyneuraminic acid (ADDN), was obtained from Sigma Chemical Company (St. Louis, Mo.). ApoE KO mice were ˜6 weeks of age at the beginning of the study. The mice were randomized into 2 groups of 6. The control group received daily i.p injections of 0.9% saline (0.1 ml/day for […]). The experimental group received daily i.p. injections of 0.9% saline (0.1 ml per day) containing either 0.1 or 0.4 ug ADDN for 7 days. Serum was collected on day 7 and serum glucose, total cholesterol and LDL levels were measured.

The mark [4] stands for this setting: daily i.p. 0.1 or 0.4 ug for 7 days.

On to `CC(=O)N[C@H]1[C@H]([C@H](O)[C@H](O)CO)OC(C(=O)O)=C[C@@H]1O` [ADDN, N-Acetyl-2,3-dehydro-2-deoxyneuraminic acid], for which the “growth of atherosclerotic plaque cross sectional area from baseline” value in the test on ApoE KO mice [1] (aortic root, FIG. 9A) is “substantially inhibited”. Also, the “growth of atherosclerotic plaque volume from baseline” value in the test on ApoE KO mice [1] (aortic sinus, FIG. 9B) is “substantially inhibited”. Also, in test [2], the “production of the inflammatory cytokine IL-6” value was “reduced production of IL-6”. In addition, in the test on ApoE KO mice [3] (setting [4]), the LDL cholesterol entry is “significantly less”, the serum glucose result is reported as “significantly decreased” and the serum total cholesterol entry was “significantly less”. Moreover, in the test with ApoE KO mice [3] (daily i.p. injections), the HDL cholesterol entry was “significantly less”.
